Results on four molecules are retold here after US3963727A, “1,2 Disubstituted benzimidazole derivatives” (Daiichi Seiyaku Co., Ltd., priority 1975, dated 1976).

Data set [1] concerns stereotyped behavior induced with methamphetamine hydrochloride. The data set is described as follows: Anti-methamphetamine Test in Rats. To be noted: for ED50: Rattus norvegicus, po, read-out: ED50 and Its Confidence Limit; for Potency Ratio: anti-methamphetamine ED50, relative to haloperidol = 1.0; for suppressing methamphetamine-induced stereotypy: rat, oral, in words.
Data set [2] deals with catalepsy. Put plainly: Catalepsy Test in Rats. As to conditions: for Potency Ratio: catalepsy ED50, relative to haloperidol = 1.0; for dissociation between the dose effective against methamphetamine and the dose inducing catalepsy / catalepsy: rat, oral, in words; for dissociation between the dose effective against methamphetamine and the dose inducing catalepsy: comparison of anti-methamphetamine and catalepsy tests.
Description: (§1) After medication, both legs of the rats were put on a horizontal metal bar, 12 cm apart from the floor, and the rats were forced to stand on hind legs. Observation of rat behavior was made 1, 2, 4, 6, 8, 10, 12 and 24 hours later.

Another data set in a line: Catalepsy Test in Rats. As to conditions: rat, in vivo, po.
Data set [3] has as its system gnawing (stereotyped behavior induced by apomorphine). The data set is described as follows: Anti-apomorphine Test in Rats. Format: in vivo, rats of Wistar strain (male). To be noted: for ED50: read-out: ED50 and Its Confidence Limit; for Potency Ratio: anti-apomorphine ED50, relative to haloperidol = 1.0. As for the experimental part:
Six male rats of Wistar strain weighing 120 to 200 g were used at each dosage level. […] The effect against apomorphine was taken as positive when gnawing behavior was not noticed during the observation period of 1 minute. ED50 was calculated from the dose inhibition percet relationship.

The test system of data set [4] is conditioned avoidance (avoidance failure). The data set is described as follows: Conditioned Avoidance Test by Shuttle Box. Format: in vivo, rats of Wistar strain (male). As to conditions: for ED50: read-out: ED50 and Its Confidence Limit; for Potency Ratio: conditioned avoidance ED50, relative to haloperidol = 1.0. The source says: Use was made of a shuttle box consisted of two chambers divided by a plate with a square hole. The floor of each chamber was made of steel-rod grid which can be charged electrically. The whole apparatus was maintained in a sound proof room. The training schedule was as follows. Each trial was initiated by supplying the sound of buzzer as conditioned stimulus for 3 seconds. Unless the rats escaped to another compartment […] thereafter, the grid floor was electrified for 4 seconds as unconditioned stimulus. Each rat was trained for more than 2 weeks with a daily session of 30 trials at an interval of 60 seconds.
Six rats per group were subjected to 10 consecutive trails 1, 2, 4, 6, 8 and 10 hours after medication, respectively. In this case, a 3-second interval was taken between the termination of the conditioned stimulus and the onset of the unconditioned one. ED50 values at each time were calculated from the average percentages of avoidance failure.

The subject of data set [5] is catalepsy. As to conditions: rat, in vivo.
Description: as §1
The next data set can be described thus: in vivo. As to conditions: rat, po.
[6] abbreviates: rat, oral, apomorphine 1.25 mg/kg i.v., time of maximum effect 2 hrs.

Entries after “also recorded” stand apart in the source; their conditions may differ. Where two headings read alike, the source gives them in different places.

Description for in vivo: as §1

`O=C(CCCN1CCC(n2c(O)nc3ccccc32)CC1)c1ccc(F)cc1` [Benperidol, reference compound]: the ED50 (commonly the dose that gives a 50% effect, or the effect in half of the subjects) in data set [1] (2 h) was 0.44 mg/kg; in data set [3] (Rattus norvegicus, po, 1 h) it was 0.62 mg/kg; in data set [4] (Rattus norvegicus, po, 4 h), 0.81 mg/kg. The “Potency Ratio” value in data set [1] was found to be 1.1; in the data set with catalepsy [2] it was 0.95; in data set [3], 1.1; in data set [4], 0.7. Also, in the data set with catalepsy [2], the “dissociation between the dose effective against methamphetamine and the dose inducing catalepsy” value (shortened to “dissociation between the dose effective”) was “exhibit both the effects at almost the same dose level; also recorded: exhibit simultaneously both desired and undesired side-effects to almost the same extent at their effective dosages”. For the same molecule, it took a dose of 0.92 mg/kg to reach the 50% effect level in the data set “Catalepsy Test in Rats” (ED50 at 8 h).

For `O=C(CCCN1CCC(n2c(S)nc3ccccc32)CC1)c1ccc(F)cc1` [Compound A, 1-[1-(3-(4-fluorobenzoyl)propyl)-4-piperidyl]-2-mercaptobenzimidazole], the ED50 came out at 0.054 mg/kg in data set [1] (2 h); 0.095 mg/kg in data set [3] (setting [6]); 0.06 mg/kg in data set [4] (shuttle box, rat, oral, time of maximum effect 6 hrs). Besides, the “Potency Ratio” value in data set [1] is recorded as 8.9; in the data set on catalepsy [2], 3.5; in data set [3], 7.5; in data set [4], 8.8. Besides, the suppressing methamphetamine-induced stereotypy entry in data set [1] is listed as “highly effective in suppressing methamphetamine-induced stereotypy”. Further, the “dissociation between the dose effective” value in the data set on catalepsy [2] is given as “marked dissociation”. Besides, the catalepsy entry in the data set with catalepsy [2] is on record as “produce catalepsy only in higher doses”. In addition, in “Catalepsy Test in Rats”, it took a dose of 0.25 mg/kg to reach the 50% effect level (ED50 at 10 h).

As to `CSc1nc2ccccc2n1C1CCN(CCCC(=O)c2ccc(F)cc2)CC1` [Compound B, 1-[1-(3-(4-fluorobenzoyl)propyl)-4-piperidyl]-2-methylmercaptobenzimidazole], the ED50 in data set [1] (1 h) turned out to be 0.17 mg/kg; in data set [3] (setting [6]) it was 0.41 mg/kg; in data set [4] (shuttle box, rat, oral, time of maximum effect 4 hrs), 0.34 mg/kg. Further, the “Potency Ratio” value was determined as 2.8 in data set [1], 1.3 in the data set on catalepsy [2], 1.7 in data set [3] and 1.6 in data set [4]. The suppressing methamphetamine-induced stereotypy entry in data set [1] was “highly effective in suppressing methamphetamine-induced stereotypy”. The “dissociation between the dose effective” value with catalepsy [2] is “marked dissociation”. In addition, the catalepsy result in the data set with catalepsy [2] is given as “produce catalepsy only in higher doses”. This molecule also returned an ED50 at 10 h in the data set “Catalepsy Test in Rats” of 0.68 mg/kg.

Turning to `O=C(CCCN1CCC(O)(c2ccc(Cl)cc2)CC1)c1ccc(F)cc1` [Haloperidol, reference compound], in the data set on catalepsy [5], the “Potency Ratio” value came out at 1.0. For the same molecule, the ED50 worked out at 0.48 mg/kg in data set [1] (1 h); 0.71 mg/kg in data set [3] (Rattus norvegicus, po, 2 h); 0.53 mg/kg in data set [4] (Rattus norvegicus, po, 4 h). Also, the “dissociation between the dose effective” value in the data set with catalepsy [2] was “exhibit both the effects at almost the same dose level; also recorded: exhibit simultaneously both desired and undesired side-effects to almost the same extent at their effective dosages”. For the same molecule, the ED50 at 8 h in “in vivo” was 0.88 mg/kg.
